# Read-outs that look alike come from different tables or passages of the source.
# Legend:
# [1] = tested on: Nrf2 gene target NQO1; experiment: NQO1 expression (immunoblotting) in primary human renal cortical cells; format: cell-based
# Experimental: Cell culture: Primary human distal tubule cells from human adult kidneys were isolated and cultured as previously described (Emlet et al., Am. J. Physiol.-Ren. Physiol. 312, (2017)). Confluent monolayers of cells were incubated with vehicle control, LiCl or CDDO-Im for 18 hr in serum-free hormonally defined media followed by preparation of lysates for immunoblotting.
# (§1) Immunoblotting: Flash-frozen kidneys were homogenized in ice-cold Radio Immuno Precipitation Assay (RIPA) buffer containing protease and phosphatase inhibitor cocktails. Cells were treated as indicated. At time of collection, cells were washed 2× with cold PBS and lysates were prepared in 4° C. lysis buffer containing protease inhibitors. Protein was quantified by bicinchoninic acid (BCA) assay (Pierce) and sample containing 15-25 μg total cellular protein was loaded on 4-12% reducing Bis-Tris gel. Resolved proteins were transferred to 0.45 μm nitrocellulose membrane, blocked with 5% non-fat dry milk or 5% bovine serum albumin in TRIS® buffered saline (TBS)-0.1% Tween 20 for 1 hr. Membranes were incubated with primary antibody (1:1000 dilution) for 1 hr at room temperature or overnight at 4° C. Appropriate secondary antibody was applied at dilution of 1:5000 for 1 hr, membrane washed thrice in TBS-0.1% Tween-20 and membrane visualized with Clarity ECL chemiluminescence kit and ChemiDoc imager (Bio-Rad, Hercules, Calif.).
# To establish a murine model of NDI, mice were administered control chow diet or 0.17% LiCl diet for 0-7 days (FIG. 1A) during which body weight, food intake (Suppl. FIG. 1) and water intake (FIG. 1B) were monitored. […]
# To further test the distribution of Nrf2 and sensitivity to activation in a translational model, NQO1 expression was determined in a cell culture model systems of primary human renal cortical cells representing proximal tubule (PT) and distal tubule (DT) cell populations (Emlet et al., Am. J. Physiol. - Ren. Physiol. 312, (2017)) in the presence or absence of the Nrf2 activator CDDO-Imidazolide (CDDO-Im) (FIG. 5C-F). […]
# [2] = tested on: Nrf2; experiment: CDDO-Me in the Li-NDI mouse model; format: in vivo, mice; details: 5 mg/kg I.P., q.d.
# Experimental: FIGS. 9A-9J. Pharmacologic activation of Nrf2 using CDDO-Me protects against polydipsia in Li-NDI via an AQP2-independent mechanism. (A) Schematic of model of Li-NDI. All mice received normal chow for 0-3d and were randomized to vehicle or CDDO-Me (5 mg/kg I.P., q.d.). At day 3, mice were randomized to either normal chow or 0.17% LiC1 diet. (B) Animal weights as a function of time, normalized to starting weight. (C) 24 hr food intake normalized to body weight. (D) Changes in water intake as a % of baseline expressed as mean±SE (n=6-8 per group). *(p<0.05) denotes statistical significance compared to LiC1-Vehicle by two-way ANOVA with Dunnet correction for multiple comparisons. (E) Immunoblotting of whole-kidney lysates for glycosylated ( ? , 45 kDa) and non-glycosylated ( ? , 29 kDa) AQP2 and NQO1; (F-H) Densitometry showing individual values, mean±SE with statistical analysis by one-way ANOVA with Tukey correction for multiple comparisons. (I) Plasma Li concentration. […]
# Water and Urine: Mice and food were weighed daily. Water was supplied in 50 mL conical with sipper tube as described (bio-protocol.org/e1822), and daily water intake was determined by weight. Spot urine was collected after spontaneous voiding on plastic wrap and urine osmolality measured in technical duplicate with Wescor 5500® Vapor Pressure Osmometer using lOuL urine and the average value reported each mouse. […]
# [3] = Dietary Li administration in Keap1f/f mice (constitutive Nrf2 activation); format: in vivo
# Experimental: Water and Urine: Mice and food were weighed daily. Water was supplied in 50 mL conical with sipper tube as described (bio-protocol.org/e1822), and daily water intake was determined by weight. Spot urine was collected after spontaneous voiding on plastic wrap and urine osmolality measured in technical duplicate with Wescor 5500® Vapor Pressure Osmometer using lOuL urine and the average value reported each mouse.
# as §1
# Consequently, Li was administered to mice with constitutive pharmacomimetic Nrf2 activation (Keap1^f/f) to test whether Nrf2 and Li induced NDI via synergistic or additive mechanisms (FIG. 3A). To our surprise, instead of exacerbating the renal toxicity of Li, activation of Nrf2 signaling conferred significant protective effects.
# The duration of Li therapy in humans is on the order of months to decades. An experiment was done to evaluate if Nrf2 hyperactivation conferred long-term protection from the development of Li-NDI. 6-8 week old WT and Keap1^flox/flox mice were randomized to control or 0.17% LiCl diet for 8 months.
# [4] = Nrf2-/- mice
# [5] = tested on: Nrf2; experiment: 10-nitro-9(E)-octadec-9-enoic acid in nephrogenic diabetes insipidus; details: in vivo
# From the text: The pharmacologic activation of Nrf2 with CDDO-Me provided motivation to evaluate the viability of 10-nitro-9(E)-octadec-9-enoic acid as an activator and potential API for treating or preventing NDI.
smiles,measurement,setting,value
"CC1(C)CC[C@]2(C(=O)n3ccnc3)CC[C@]3(C)[C@H](C(=O)C=C4[C@@]5(C)C=C(C#N)C(=O)C(C)(C)[C@@H]5CC[C@]43C)[C@@H]2C1 [CDDO-Im, CDDO-Imidazolide]",NQO1 expression,"[1]; CD-10/CD-13 positive HAK cells (proximal tubule), exposure to CDDO-Im",did not further increase
same,elevation in NQO1,"[1]; MUC1 positive cells (distal tubule), exposure to CDDO-Im",3 fold
"COC(=O)[C@]12CCC(C)(C)C[C@H]1[C@H]1C(=O)C=C3[C@@]4(C)C=C(C#N)C(=O)C(C)(C)[C@@H]4CC[C@@]3(C)[C@]1(C)CC2 [CDDO-Me, Bardoxolone methyl]",food consumption,[2]; with LiCl diet,without impacting
same,increase of renal NQO1 expression,[2]; whole-kidney lysates,2- to 3 fold
[Cl-].[Li+] [LiCl],water intake (polydipsia),[3]; Keap1f/f mice receiving Li,normodipsic
same,body mass change vs control diet,[3]; Keap1f/f mice receiving LiCl,no change
same,urine osmolality,"[3]; Keap1f/f-Li cohort, day 13",758+/−703 mOsm/kg
same,average daily water intake compared to WT-Ctrl,"[3]; Keap1flox/flox-Li mice, 0.17% LiCl diet",no significant increase
same,total expression of NCC (tNCC),"[3]; kidney lysates, Keap1f/f-Li cohort",significantly reduced
same,NQO1 expression,"[1]; Li 10 mM and 50 mM, Mucin 1-enriched distal tubule cells and CD10/CD13 proximal tubule cells",No increase
same,renal protein expression of Nrf2 gene target NQO1,"0.17% LiCl diet, 7 days",without impacting
same,Water intake,"0.17% LiCl diet, after 4 days",significantly increased
same,renal expression of AQP2,"0.17% LiCl diet, by 7 days",significantly downregulated
same,urine osmolality (hyposthenuria),"0.17% LiCl diet, day 7, spot urine",significant hyposthenuria
same,Expression of NQO1 in kidney,"Example 4, Li treatment",not affected
same,glycosylated and non-glycosylated AQP2 isoforms in kidney,"Example 4, both WT and Keap1f/f groups",significantly reduced
same,volume status when water intake clamped to baseline intake,"LiCl diet, baseline-clamped water",significant volume depletion with hypernatremia and polycythemia
same,renal expression of CA-II,WT animals,reduced
same,renal COX-1 expression,WT mice,down-regulate
same,renal COX-2 expression,WT mice,down-regulate
same,spot urine osmolality,"WT-Li cohort, day 13",359+/−192 mOsm/kg
same,reduction in body mass,"WT-Li mice, Example 4",~5%
same,plasma Li+,both WT and Keap1f/f groups on LiCl diet,equivalently elevated
same,total expression of NCC (tNCC),"kidney lysates, WT-Li cohort",unchanged
same,"Activating phosphorylation of NCC at threonine 53 (pNCC, T53)","kidney lysates, both genotypes",reduced
same,body weight,[4]; Li diet 6 days,slightly reduced
same,Food intake,[4]; first 3 days of LiCl diet,modestly suppressed
same,urine osmolality,"[4]; spot urine, day 11",176+/−43 mOsm/kg
CCCCCCCC/C(=C\CCCCCCCC(=O)O)[N+](=O)[O-] [10-nitro-9(E)-octadec-9-enoic acid],symptoms of nephrogenic diabetes insipidus,[5],reduced symptoms of nephrogenic diabetes insipidus

# From patent US20220273703A1, “NRF2 ACTIVATION FOR TREATMENT OF NEPHROGENIC DIABETES INSIPIDUS” (University Of Pittsburgh-Of The Commonwealth System Of …, priority 2019, published 2022)
